Some test systems named below: BT-549 breast; IGROV1 ovarian; SF-539 CNS; LOX IMVI melanoma; OVCAR-4 ovarian; HOP-62 NSCLC; A498 renal; SW-620 colon; K-562 leukemia; T-47D breast.
Experiment in all cases: inhibition of tumour cell growth, NCI panel, 48 h

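Step 1: Grow cells in 96-well plates. Step 2: Expose to compound for 48 hours at 5 concentrations. Step 3: Interpolate endpoints linearly; if unreached, use highest concentration. GI50: concentration for 50% inhibition of growth. TGI: total growth inhibition.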 A value given as a limit tells only on which side of the number the result lay.

Take `COc1ccc(C2C(C#N)=C(N)OC3=C2COc2ccc(F)cc23)cc1OC` (stereo not given): the GI50 in the assay with BT-549 breast was 28.9 µM; in the assay on IGROV1 ovarian, 28.7 µM; in the assay on SF-539 CNS, 21.5 µM; in the assay on LOX IMVI melanoma it was 11.3 µM; in the assay with OVCAR-4 ovarian, 24.9 µM; in the assay with HOP-62 NSCLC, 27.9 µM. Also, the results for the GI50 with A498 renal, in the assay with SW-620 colon and with K-562 leukemia were 28.3 µM, 44.4 µM and 31.8 µM, respectively. Besides, the TGI is above 100 µM in the assay with BT-549 breast; above 100 µM in the assay with IGROV1 ovarian; 75.4 µM with SF-539 CNS; 24.1 µM with LOX IMVI melanoma; above 100 µM in the assay with OVCAR-4 ovarian; above 100 µM in the assay on HOP-62 NSCLC. Further, the figures for the TGI in the assay with A498 renal, in the assay with SW-620 colon and in the assay on K-562 leukemia were 59.1 µM, above 100 µM and above 100 µM, respectively.
As for `COC(=O)[C@@H](NC(=O)[C@@H](OC)[C@@H]1Cc2cc3cc(OC4CC(OC5CC(O)C(O)C(C)O5)C(O)C(C)O4)c(C)c(O)c3c(O)c2C(=O)[C@H]1OC1CC(OC2CC(OC3CC(C)(O)C(O)C(C)O3)C(O)C(C)O2)C(O)C(C)O1)C(C)C` (stereo not given in full), the GI50 with BT-549 breast is 0.184 µM; with IGROV1 ovarian it was 0.101 µM; with SF-539 CNS, 0.127 µM; with T-47D breast it was 0.202 µM; with OVCAR-4 ovarian it was 0.166 µM; with HOP-62 NSCLC, 0.0824 µM. Moreover, the GI50 in the assay on A498 renal is 0.0869 µM; in the assay with SW-620 colon it was 0.121 µM; in the assay with K-562 leukemia, 0.139 µM. Besides, the TGI with BT-549 breast is 2.63 µM; with IGROV1 ovarian it was above 32.5 µM; in the assay with SF-539 CNS, 0.847 µM; in the assay with T-47D breast, above 32.5 µM; in the assay with OVCAR-4 ovarian, 14 µM; in the assay on HOP-62 NSCLC, above 32.5 µM. Besides, the TGI with A498 renal was 0.333 µM; with SW-620 colon, above 32.5 µM; in the assay with K-562 leukemia it was above 32.5 µM.
Turning to `Cc1[nH][nH]c(=O)c1C=Nc1ccc(-c2nc3ccccc3[nH]2)cc1`, the GI50 with BT-549 breast is 36.2 µM; with IGROV1 ovarian it was 24.6 µM; in the assay with SF-539 CNS it was 22.2 µM; in the assay on LOX IMVI melanoma, 16.8 µM; in the assay with OVCAR-4 ovarian it was 24.4 µM; with SW-620 colon it was 25.6 µM. The GI50 in the assay on K-562 leukemia is 27.4 µM. Besides, the TGI is 97.1 µM in the assay with BT-549 breast; above 100 µM with IGROV1 ovarian; 41.6 µM with SF-539 CNS; 30.5 µM with LOX IMVI melanoma; 76.5 µM with OVCAR-4 ovarian; 55.7 µM in the assay with SW-620 colon. In the assay on K-562 leukemia, this molecule gave a TGI of 87.2 µM.
Take `O=C(O)c1ccccc1-c1ccccc1C(=O)Nc1ccc2c(c1)Cc1cc(F)ccc1-2`: the TGI in the assay on BT-549 breast was 40.2 µM; in the assay with IGROV1 ovarian it was above 100 µM; with SF-539 CNS, above 100 µM; in the assay on T-47D breast it was above 100 µM; in the assay with LOX IMVI melanoma, 77.7 µM; in the assay on OVCAR-4 ovarian it was above 100 µM. Further, the TGI with HOP-62 NSCLC is 87.4 µM; in the assay with A498 renal, 46 µM; in the assay on SW-620 colon, above 100 µM.
On to `CN(C)Cc1c[nH]c2c1C(=O)c1c(c(O)c3ccccc3c1O)C2=O`, for which the GI50 in the assay with BT-549 breast was 13.7 µM; with IGROV1 ovarian, 3.34 µM; in the assay on T-47D breast, 11.4 µM; in the assay with LOX IMVI melanoma, 6.32 µM; in the assay on OVCAR-4 ovarian it was 20.1 µM; in the assay with HOP-62 NSCLC it was 10.7 µM. Further, the GI50 with A498 renal was 12.1 µM; with SW-620 colon, 3.37 µM; in the assay on K-562 leukemia, 2.24 µM. Moreover, the TGI is 26.5 µM in the assay on BT-549 breast; 37.2 µM with IGROV1 ovarian; above 100 µM with T-47D breast; 19.5 µM with LOX IMVI melanoma; 42.6 µM in the assay with OVCAR-4 ovarian; 27.9 µM with HOP-62 NSCLC. The TGI with A498 renal is 25.3 µM; in the assay with SW-620 colon it was 14.6 µM; in the assay with K-562 leukemia it was above 100 µM.
For `COc1cc2cn3c4ccc(O)cc4[nH]c(=O)c3c2cc1OC`, the GI50 with BT-549 breast is 0.435 µM; in the assay on SF-539 CNS it was 0.0176 µM; in the assay on T-47D breast it was 0.0199 µM; in the assay with LOX IMVI melanoma it was 0.0131 µM; in the assay with OVCAR-4 ovarian, 0.0594 µM; in the assay on HOP-62 NSCLC it was 0.0338 µM. The GI50 is 0.02 µM in the assay with A498 renal, below 0.0119 µM in the assay on SW-620 colon and below 0.0117 µM in the assay with K-562 leukemia. Moreover, the TGI in the assay on BT-549 breast came to 2.26 µM; in the assay with SF-539 CNS, 0.296 µM; in the assay with T-47D breast, 2.05 µM; with LOX IMVI melanoma it was 1.44 µM; in the assay with OVCAR-4 ovarian, 2.11 µM; with HOP-62 NSCLC, 1.81 µM. For the same molecule, the TGI worked out at 10.8 µM in the assay on A498 renal, 1.83 µM in the assay with SW-620 colon and 1.68 µM in the assay with K-562 leukemia.
Turning to `Nc1c(C(=O)N/N=C/c2ccc(-c3ccc(Cl)cc3)o2)cnn1-c1ccnc2c(C(F)(F)F)cccc12`, the GI50 in the assay with IGROV1 ovarian is above 100 µM; in the assay on SF-539 CNS, above 100 µM; in the assay on T-47D breast it was 42.4 µM; in the assay with LOX IMVI melanoma, above 100 µM; in the assay on OVCAR-4 ovarian, 72.5 µM; in the assay on HOP-62 NSCLC it was above 100 µM. For the same molecule, the GI50 was above 100 µM in the assay on A498 renal, above 100 µM with SW-620 colon and 97.7 µM with K-562 leukemia. Besides, the TGI with IGROV1 ovarian, in the assay on SF-539 CNS, in the assay with T-47D breast, in the assay with LOX IMVI melanoma, with OVCAR-4 ovarian and in the assay with HOP-62 NSCLC was above 100 µM each time. Moreover, the TGI in the assay on A498 renal, with SW-620 colon and in the assay with K-562 leukemia was above 100 µM in each case.
With `O=C(O)c1c(-c2nccc3ccccc23)[nH]c(-c2ccccc2)c1S(=O)(=O)O`, the TGI with BT-549 breast, in the assay with IGROV1 ovarian, in the assay with SF-539 CNS, with T-47D breast, in the assay with LOX IMVI melanoma and with OVCAR-4 ovarian was above 100 µM in each case. The TGI with HOP-62 NSCLC, with A498 renal and in the assay on SW-620 colon was above 100 µM throughout.
With `CC(=O)Oc1ccccc1C(=O)N=C1[Se]CCCN1C(=O)c1ccccc1OC(C)=O`, the GI50 was 2.29 µM in the assay on BT-549 breast; 2.83 µM with IGROV1 ovarian; 2.66 µM in the assay on SF-539 CNS; 3.44 µM in the assay with T-47D breast; 1.7 µM in the assay on LOX IMVI melanoma; 1.93 µM with OVCAR-4 ovarian. The GI50 in the assay with HOP-62 NSCLC is 1.61 µM; in the assay with SW-620 colon, 3.58 µM; in the assay on K-562 leukemia, 3.32 µM. Besides, the TGI was found to be 6.66 µM in the assay on BT-549 breast; 11.6 µM with IGROV1 ovarian; 6.28 µM in the assay on SF-539 CNS; 13.5 µM in the assay with T-47D breast; 4.37 µM with LOX IMVI melanoma; 5.57 µM in the assay with OVCAR-4 ovarian. Moreover, the TGI in the assay with HOP-62 NSCLC was determined as 3.01 µM; with SW-620 colon, 11.4 µM; with K-562 leukemia, 12.6 µM.

These data come from PubChem BioAssay (NCI).
